Assay results as given in patent publication US12384825B2, “Monomeric peptide multi-agonist targeting the GLP1 receptor and NPY receptors” (Syracuse University, priority 2019, dated 2025).
Entries after “also recorded” stand apart in the source; their conditions may differ. Where no end group is shown, it is not given here. [ ]: non-standard residue; d: D form. Lys(N3) = [N-]=[N+]=NCCCC[C@H](N)C(=O)O

Legend:
human NPY2-R = target: T1, human NPY2-R (Homo sapiens, UniProt P49146); test: FRET assay at Y2-R, mitigation of adenosine stimulated cAMP at the A2b receptor (EPAC2/H188, HEK293); type: cell-based
T1 construct: host or cells: HEK293 (H188 FRET reporter)
T1 sequence (P49146 1-381): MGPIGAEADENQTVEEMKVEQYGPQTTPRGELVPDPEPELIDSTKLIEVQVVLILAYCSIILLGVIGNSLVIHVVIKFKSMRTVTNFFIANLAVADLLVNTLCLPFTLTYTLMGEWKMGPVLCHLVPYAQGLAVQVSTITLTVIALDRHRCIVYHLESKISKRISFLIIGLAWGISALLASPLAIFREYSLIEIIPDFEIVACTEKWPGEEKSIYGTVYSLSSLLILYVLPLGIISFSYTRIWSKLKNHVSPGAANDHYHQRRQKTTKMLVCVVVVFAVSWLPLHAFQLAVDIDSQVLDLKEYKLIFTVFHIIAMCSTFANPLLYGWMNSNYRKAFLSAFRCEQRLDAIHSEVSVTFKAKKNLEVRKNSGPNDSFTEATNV

human NPY1-R = target: T2, human NPY1-R (Homo sapiens, UniProt P25929); test: FRET assay at Y1-R, mitigation of adenosine stimulated cAMP at the A2b receptor (EPAC2/H188, HEK293); type: cell-based; conditions: cells expressing Y1-R, partial antagonist
T2 construct: host or cells: HEK293 (H188 FRET reporter)
T2 sequence (P25929 1-384): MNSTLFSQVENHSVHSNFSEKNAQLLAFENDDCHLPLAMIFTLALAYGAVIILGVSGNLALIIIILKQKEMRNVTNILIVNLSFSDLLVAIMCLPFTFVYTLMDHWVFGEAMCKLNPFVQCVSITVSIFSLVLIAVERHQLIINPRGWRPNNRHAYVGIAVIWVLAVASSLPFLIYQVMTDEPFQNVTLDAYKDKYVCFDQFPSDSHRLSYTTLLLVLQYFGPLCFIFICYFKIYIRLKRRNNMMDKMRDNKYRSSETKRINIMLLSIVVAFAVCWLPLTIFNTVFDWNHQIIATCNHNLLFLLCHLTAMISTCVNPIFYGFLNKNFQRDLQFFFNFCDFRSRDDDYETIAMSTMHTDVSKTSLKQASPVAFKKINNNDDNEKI

[1] = Intraperitoneal glucose tolerance testing after 5-d treatment in rats; type: in vivo, rat; conditions: 10 nmol/kg, pre-diabetic (DIO) rats
Method: DIO Sprague Dawley rats (803.0±102.7 g n=7) were administered a pre-treatment IPGTT with a vehicle injection. Animals were grouped based on body weight, Lee Index (a measure of adiposity; lee index=weight1/3/nasoanal length), and baseline IPGTT blood glucose excursion. […] On treatment day 5, a repeat IPGTT was performed with the assigned treatment. All weights noted are mean±Std. Dev. Metabolic testing. Intraperitoneal glucose tolerance testing (IPGTT) was performed following a 6-h fast such that the glucose bolus occurred at the start of the dark cycle; all animal handling is performed under red light. […] A second baseline sample was obtained 30 minutes later, immediately prior to the dextrose bolus (1.5 g/kg dextrose, 20% solution). Additional blood glucose measurements were taken 7, 15, 30, 45, 60, and 120 minutes post-bolus. All blood glucose measurements were made via handheld glucometers (One Touch Ultra) in duplicate; if the variation between the two measures was >5%, a third measurement was taken.

IPGTT in shrews = type: in vivo, shrew
[2] = 5-day treatment in diet-induced obese (DIO) rats; type: in vivo, rat; conditions: diet-induced obese Sprague-Dawley rats, 10 nmol/kg once daily, 5 d
Description: Diet Induced Obese (DIO) rats. To generate DIO rats, young (4-wk of age) lean male Sprague Dawley rats (Charles River Laboratories, Inc. Wilmington, MA; strain code 001) were placed on a high fat diet (HFD; D12492, 60% kcal from fat, Research Diets, New Brunswick, NJ) for 4-5 months prior to the start of the experiments to attain >20% of body fat. During this time, animals had ad libitum access to food and water.
5-day Treatment in DIO rats. DIO Sprague Dawley rats (2 cohorts; 826.1 g n=9, and 642.3 g n=5) were individually housed and the animal room was maintained on a 12-h light/12-hour dark cycle. During the 5-day baseline phase, animals were administered vehicle (0.9% sterile saline solution, injectable) injections just prior to the start of the dark cycle. At the end of the baseline phase, animals were grouped based on body weight, average daily body weight gain, and food intake. […] Throughout the experiment, body weight and food intake (via hopper weighs) were assessed daily just prior to the start of the dark cycle. Fasting blood glucose was tested prior to the baseline phase and at the end of the treatment phase via handheld glucometer (One Tough Ultra).

rat pancreatic islets = test: Static glucose stimulated insulin secretion (GSIS) in rat islets; type: cell-based; conditions: 10 mM glucose, 50 nM peptides
Method: Rat islet isolation and culture. Islets were harvested from Sprague-Dawley rats (approximately 250 g; Charles River) and anesthetized by intraperitoneal injection of pentobarbital sodium (150 mg/kg rat). Islets were prepared and purified as described^56. Islets were then cultured for 18 h in a 37° C., 5% CO2 incubator prior to the experiments in RPMI medium supplemented with 10% heat inactivated fetal bovine serum (Invitrogen). Static measurement of ISR. ISR was determined statically with multiple conditions, as described previously^57. Briefly, islets were handpicked into a petri dish containing KRB, 0.1% BSA, and 3 mM glucose and incubated at 37° C., 5% CO2 for 60 min. Subsequently, islets were picked into wells of 96-well plates containing desired amounts of glucose and agents as indicated and incubated for an additional 60 min. At the end of this period, supernatant was assayed for insulin.

[3] = tested on: perifused isolated rat islets; test: Cytokine-induced damage of perifused isolated rat islets (OCR, membrane permeability); type: cell-based; conditions: cytokines IFN-γ, TNF-α, IL-1β
Description: For this evaluation, a customized perifusion system was used that both maintains islet health while continuously assessing β-cell viability by OCR.

rat islets = test: Insulin secretion rate in rat islet cell perifusion, exposure and washout; type: cell-based
human GLP-1R = human GLP-1R (Homo sapiens, UniProt P43220); test: FRET reporter assay tracking cAMP stimulation at the GLP-1R (EPAC2/H188 sensor, HEK293 cells); type: cell-based; conditions: FIG. 7
Chain of human GLP-1R (P43220 24-463): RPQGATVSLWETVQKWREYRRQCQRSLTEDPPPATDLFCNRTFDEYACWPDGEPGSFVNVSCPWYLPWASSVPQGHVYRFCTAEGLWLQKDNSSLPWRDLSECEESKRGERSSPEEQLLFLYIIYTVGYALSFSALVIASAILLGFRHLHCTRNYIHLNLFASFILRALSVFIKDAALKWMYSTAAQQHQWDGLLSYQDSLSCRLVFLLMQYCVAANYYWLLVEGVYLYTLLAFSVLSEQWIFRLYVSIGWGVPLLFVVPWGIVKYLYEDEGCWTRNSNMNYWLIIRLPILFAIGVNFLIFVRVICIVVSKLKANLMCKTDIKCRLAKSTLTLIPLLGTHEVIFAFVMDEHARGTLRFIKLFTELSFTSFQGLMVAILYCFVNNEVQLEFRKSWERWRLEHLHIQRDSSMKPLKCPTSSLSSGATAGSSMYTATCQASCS

[4] = Dose escalation study, food intake in rats; type: in vivo, rat
Method: Dose Escalation Study. Lean Sprague Dawley rats (350 g) were individually housed in cages capable of recording food intake (Accuscan Diet cages). The animal room was maintained on a 12-h light/12-hour dark cycle. The study design consisted of sequential rounds of a 2-day baseline phase, a 2-day treatment phase, and a 2-day washout phase. Body weight was assessed daily just prior to the start of the dark cycle, food and kaolin intake were available ad libitum and consumption was continuously recorded. Treatment doses were administered just prior to the start of the dark cycle via subcutaneous injection.

human islets = test: Insulin release in human islets; type: cell-based

Molecule	block of GEP44 agonism by antagonist at Y2-R (human NPY2-R; FRET, cells expressing Y2-R, potent antagonist)	block of GEP44 agonism by antagonist at Y1-R (human NPY1-R)	blood glucose during intraperitoneal glucose tolerance testing, GEP44 vs Ex4 [1]	glucoregulation (IPGTT) (IPGTT in shrews)	signalling via the Y2-R, cAMP production (human NPY2-R; FIG. 7)	body weight [2]	fasting blood glucose [2]	food intake [2]	glucose stimulated insulin secretion (GSIS), as ISR (rat pancreatic islets)	fall in cytokine-induced OCR [3]	insulin secretion rate (ISR) (rat islets; acute exposure)	persistence of the effect on insulin secretion after washout (rat islets; exposure and washout)	signalling via the GLP-1R, cAMP production (human GLP-1R)	2-d avg. FI ([4]; 10 nmol/kg/d, rats) [%]	reduction in food intake over 2 days ([4]; 20 nmol/kg daily, lean Sprague-Dawley rats) [%]	2-d avg. FI ([4]; 30 nmol/kg/d, rats) [%]	reductions in FI ([4]; preliminary dose escalation studies, dose not stated) [%]	food intake (in words) ([4]; rats, dose escalation, 2-d on each dose)	insulin release in human islets (human islets)
N=C(N)NCCC[C@H](NC(=O)CC1(CC(=O)N2CCN(C3c4ccccc4NC(=O)c4ccccc43)CC2)CCCC1)C(=O)NCCn1c(=O)n(-c2ccccc2)n(-c2ccccc2)c1=O (stereo partly shown) [BIIE0246, reference compound]	blocked GEP44 agonism	blocked GEP44 agonism																	
H[dS]QGTFTSDLS[Lys(N3)]YLEEEAVREFIAWLKNGGPSRHYLNLVTRQRY-NH2 [GEP44]			stronger reductions in blood glucose	confirmed glucoregulation	stimulate cAMP production	sustained weight loss	reduced fasting blood glucose; also recorded: significant reduction in fasting blood glucose	reduced food intake	stimulated GSIS; also recorded: significantly increased	slowed the fall in cytokine-induced OCR	significantly increased	more sustained vs. Ex-4	stimulate cAMP production	−58	−81.4	−84	> 88	robust reduction of FI; also recorded: robust reduction of food intake	capable of stimulating insulin release
